The values below are quoted from earlier work in patent publication US8466103B2, “Exendin polypeptide linked to biotin, method for the preparation thereof and pharmaceutical composition comprising the same” (B&L Delipharm, Corp., priority 2008, dated 2013).

In the series the target is Na-dependent multivitamin transport system. The following applies: small intestines; read-out: Affinity constant of the transport system for biotin; cited from earlier work.

As to `O=C(O)CCCC[C@@H]1SC[C@@H]2NC(=O)N[C@@H]21` [biotin], the Kd is approximately 2.6 nM.
